Assays:
[1] = Addition of flavor active peptide to unflavored cheese sauce, evaluation of imparted flavor; conditions: 0.015% (w/w based) peptide added to unflavored cheese sauce of Table 1
Procedure: Addition of the Gly-Pro-Phe-Pro-Ile (SEQ ID NO:2) peptide to the unflavored cheese sauce listed in Table 1 was carried out to evaluate the flavor imparted by the flavor active peptide. The cheese sauce formulation can be described as having a mild, Monterey Jack cheese sauce flavor with some salty and savory notes.

[2] = Addition of flavor active peptide to seasoned microwave popcorn, evaluation of imparted flavor; conditions: approximately 0.1% peptide in popped microwave popcorn with White Cheddar Snack Seasoning (Table 3)
Procedure: Addition of the Gly-Pro-Phe-Pro-Ile (SEQ ID NO:2) peptide to the base microwave popcorn listed in Table 2 was carried out to evaluate the flavor imparted by the flavor active peptide.
The sodium content of the resulting seasoned popcorn was 596.6 mg Na^+/1 oz serving.

## Gly-Pro-Phe-Pro-Ile (GPFPI) [Gly-Pro-Phe-Pro-Ile (SEQ ID NO:2)]
[1]
  flavor imparted by the flavor active peptide: made the sauce taste more salty, creamy and dairy
[2]
  flavor imparted by the flavor active peptide: imparted an increase in cheesyness, mouthfeel, and some umami character

Source: patent US9167837B2, “Peptides imparting umami, salt, dairy and bitter flavor” (International Flavors & Fragrances Inc., priority 2007, dated 2015)
